One may read the IC50 as the point on the concentration scale where inhibition reaches its midpoint.

In assay [1] the test system is P. falciparum 3D7 asexual blood stages. Description: Whole-cell time extended asexual growth assay (pLDH). It counts as cell-based. The note with it: Plasmodium falciparum, 72 h; for IC50: dose response retest, read-out: IC50 (µM) Asex stages; for inhibition at 2 µM: primary screen, read-out: %Inh Asex stages @2uM. As to the method: Asexual activity was assayed via Plasmodium lactate dehydrogenase activity (pLDH), a surrogate of asexual parasite growth. […] 2 µM artesunate and DMSO were used as the positive and negative controls, respectively. […] After plate mixing, NBT reduction was measured by absorbance at 650 nm using Envision (Perkin Elmer).

For a further assay, the system named is HepG2 human cells. Further details: method as in http://dx.doi.org/10.6019/CHEMBL3507680. The note with it: ref http://dx.doi.org/10.6019/CHEMBL3507680; cited from earlier work.

For the molecule `O=C(O)C(F)(F)F.c1ccc(CN2CCC3(CC2)CC(Nc2nccs2)CO3)nc1` (stereo not drawn) [DDD01083119], in assay [1], the IC50 was found to be 7.18 µM and the inhibition at 2 µM amounted to 37.5%. Moreover, the “%Inh HepG2 @10uM” value with HepG2 human cells is recorded as -8.19%.
Turning to `CC(C)N(C)Cc1cnc2n1CCN(C(=O)NC1CCCC1)C2.O=C(O)C(F)(F)F` [DDD01085014], in assay [1], the IC50 came to 4.32 µM and the inhibition at 2 µM is 42.5%. In addition, the “%Inh HepG2 @10uM” value with HepG2 human cells is -9.47%.
On to `O=C(NCCCN1CCOCC1)c1ccn(-c2ccc3ccccn23)n1.O=C(O)C(F)(F)F` [DDD01085308], for which, in assay [1], the IC50 came to 2.53 µM and the inhibition at 2 µM stood at 50.4%. Besides, the “%Inh HepG2 @10uM” value with HepG2 human cells is 23.54%.
With `c1cc(-c2n[nH]cc2-c2ccnc(N3CCCC3)n2)ccn1` [DDD01235828], in assay [1], the IC50 was determined as 0.201 µM and the inhibition at 2 µM stood at 46.4%. Also, in the assay with HepG2 human cells, the “%Inh HepG2 @10uM” value is given as -2.36%.
With `COc1ccc2[nH]cc(-c3ccnc(NC4CCCC4)n3)c2c1` [DDD01235847], in assay [1], the IC50 was 3.02 µM and the inhibition at 2 µM came out at 33.7%. In addition, the “%Inh HepG2 @10uM” value with HepG2 human cells is given as -0.78%.
For the molecule `CCCn1cc(-c2ccnc(NC3CCc4ccccc4C3)n2)c(C)n1` (stereo not drawn) [DDD01243522], in assay [1], the IC50 came out at 1.16 µM and the inhibition at 2 µM amounted to 31.2%. Moreover, in the assay with HepG2 human cells, the “%Inh HepG2 @10uM” value is 19.33%.
On to `COc1cccc(CN2CC(=O)N(c3ccccc3C)CC2C)c1OC` (stereo not drawn) [DDD01244654], for which, in assay [1], the IC50 came to 3.87 µM and the inhibition at 2 µM came to 51.8%. For the same molecule, the “%Inh HepG2 @10uM” value in the assay on HepG2 human cells is given as -6.78%.
For `CNc1nc(C)cc(NCc2cc(C)cc3c(C)c(C)[nH]c23)n1` [DDD01244907], in assay [1], the IC50 was 1.3 µM and the inhibition at 2 µM stood at 91.8%. The “%Inh HepG2 @10uM” value in the assay with HepG2 human cells is 98.78%.
As to `CC1CCCCN1C(=O)c1coc(COc2cccc3cnccc23)n1` (stereo not drawn) [DDD01245028], in assay [1], the IC50 was 1.56 µM and the inhibition at 2 µM worked out at 66.8%. Besides, in the assay on HepG2 human cells, the “%Inh HepG2 @10uM” value was -6.78%.
For `NCC1Cc2cc(-c3nccc(N4CCC(O)CC4)n3)cc(Cl)c2O1` (stereo not drawn) [DDD01245918], in assay [1], the IC50 worked out at 4.85 µM and the inhibition at 2 µM was determined as 72.6%. Besides, in the assay on HepG2 human cells, the “%Inh HepG2 @10uM” value is recorded as 5.41%.
Regarding `O=C(O)C1CC2(CCN(c3nccc4ccccc34)CC2)CN1` (stereo not drawn) [DDD01246093], in assay [1], the IC50 was 3.51 µM and the inhibition at 2 µM turned out to be 35.8%. The “%Inh HepG2 @10uM” value with HepG2 human cells is given as 9.49%.
For `CCn1cc(CN2CCN(Cc3cc(C)cc(C)c3)C(=O)C2)cc1C#N` [DDD01246382], in assay [1], the IC50 turned out to be 3.31 µM and the inhibition at 2 µM was 37.3%. In the assay with HepG2 human cells, the “%Inh HepG2 @10uM” value is 15.63%.
For the molecule `CCCn1ncc(-c2ccnc(NC3CC(C)(C)NC(C)(C)C3)n2)c1C` [DDD01246448], in assay [1], the IC50 turned out to be 4.53 µM and the inhibition at 2 µM is 41.5%. In the assay with HepG2 human cells, the “%Inh HepG2 @10uM” value is given as 80.08%.
With `CC1(c2ccccc2)CCCN(Cc2cncn2C2CCCC2)C1` (stereo not drawn) [DDD01246491], in assay [1], the IC50 was 2.95 µM and the inhibition at 2 µM stood at 39.7%. Besides, the “%Inh HepG2 @10uM” value in the assay with HepG2 human cells is reported as -13.60%.
For the molecule `COc1ccnc(CN2CCCC(CCc3ccc(F)cc3)C2)c1OC` (stereo not drawn) [DDD01246654], in assay [1], the IC50 was determined as 2.25 µM and the inhibition at 2 µM was found to be 51%. Moreover, the “%Inh HepG2 @10uM” value in the assay on HepG2 human cells is 2.04%.
With `Cc1ccc2[nH]c(-c3cn(C4CCNCC4)nn3)nc2c1C` [DDD01246711], in assay [1], the IC50 was 2.13 µM and the inhibition at 2 µM amounted to 63.9%. Besides, in the assay on HepG2 human cells, the “%Inh HepG2 @10uM” value is listed as -3.44%.
Consider `CCN1CCN(C[C@@H]2CN(c3ncc(Cl)cc3F)C[C@@H]2CO)CC1` [DDD01246828], for which, in assay [1], the IC50 is 1.4 µM and the inhibition at 2 µM stood at 82.5%. The “%Inh HepG2 @10uM” value in the assay with HepG2 human cells is given as -10.90%.
On to `N#Cc1cccc(N2CCCC(CO)(CCOc3ccccc3)C2)n1` (stereo not drawn) [DDD01247086], for which, in assay [1], the IC50 worked out at 8.09 µM and the inhibition at 2 µM was 32%. In the assay with HepG2 human cells, the “%Inh HepG2 @10uM” value is on record as 8.55%.
With `CC(C)CN1CCCC1c1ccc(C(=O)Nc2cccnc2)s1` (stereo not drawn) [DDD01247321], in assay [1], the IC50 was 3.35 µM and the inhibition at 2 µM stood at 34.5%. Besides, in the assay on HepG2 human cells, the “%Inh HepG2 @10uM” value was 0.07%.
For the molecule `CCn1cc(CN2CCN(Cc3cccc(OC)c3)C(=O)C2)cc1C#N` [DDD01247460], in assay [1], the IC50 was 1.46 µM and the inhibition at 2 µM amounted to 76.2%. Further, the “%Inh HepG2 @10uM” value in the assay with HepG2 human cells is -1.17%.
Turning to `COc1ccccc1OCCCc1cccc(C#N)n1` [DDD01247630], in assay [1], the IC50 was 6.32 µM and the inhibition at 2 µM was 36%. Further, the “%Inh HepG2 @10uM” value with HepG2 human cells is on record as -1.85%.
Consider `COc1cccc(CN(C)Cc2[nH]c3ccccc3c2C)c1O` [DDD01247848], for which, in assay [1], the IC50 is 1.91 µM and the inhibition at 2 µM was 91.2%. For the same molecule, the “%Inh HepG2 @10uM” value in the assay with HepG2 human cells is 1.38%.
In the case of `CNc1cc(C)nc(NCc2cc(C)cc3c(C)c(C)[nH]c23)n1` [DDD01248198], in assay [1], the IC50 was 1.79 µM and the inhibition at 2 µM was found to be 69.2%. In the assay on HepG2 human cells, the “%Inh HepG2 @10uM” value is recorded as 67.15%.
For the molecule `CC(C)c1cc(CN(C)C(=O)C(C)N2CCc3ccccc3C2)no1` (stereo not drawn) [DDD01248554], in assay [1], the IC50 is 9.68 µM and the inhibition at 2 µM worked out at 36%. Further, the “%Inh HepG2 @10uM” value in the assay on HepG2 human cells is given as 34.35%.
Take `Cc1cccnc1[C@H](C)Nc1nc(-c2cccnc2)nc2c1CNC2` [DDD01248607]: in assay [1], the IC50 came out at 3.44 µM and the inhibition at 2 µM came to 50%. Besides, the “%Inh HepG2 @10uM” value with HepG2 human cells is reported as -8.07%.
As to `CC(C)Cc1ncc2c(n1)CN(c1nccc(NC(C)C)n1)C2` [DDD01249567], in assay [1], the IC50 is 1.4 µM and the inhibition at 2 µM worked out at 92.8%. In the assay on HepG2 human cells, the “%Inh HepG2 @10uM” value is given as 2.52%.
On to `Cc1cccc2[nH]c(-c3cn(C4CCNCC4)nn3)nc12` [DDD01250141], for which, in assay [1], the IC50 was found to be 3.82 µM and the inhibition at 2 µM worked out at 34.6%. For the same molecule, the “%Inh HepG2 @10uM” value in the assay on HepG2 human cells is given as -3.11%.
As for `CCc1[nH]c2c(CNc3cc(C)nc(NC)n3)cc(C)cc2c1C` [DDD01250162], in assay [1], the IC50 is 1.2 µM and the inhibition at 2 µM was found to be 55.3%. For the same molecule, the “%Inh HepG2 @10uM” value with HepG2 human cells is 98.31%.
Take `CCCc1nc(N(C)CCN2CCCCCC2)c2cnn(C)c2n1` [DDD01250696]: in assay [1], the IC50 was found to be 5.78 µM and the inhibition at 2 µM came out at 32.1%. Besides, in the assay on HepG2 human cells, the “%Inh HepG2 @10uM” value is recorded as -11.00%.
Take `Cc1cc2nc(-c3cn(C4CCNCC4)nn3)[nH]c2cc1C` [DDD01250700]: in assay [1], the IC50 was 2.49 µM and the inhibition at 2 µM is 60.9%. Besides, the “%Inh HepG2 @10uM” value in the assay with HepG2 human cells was -2.26%.
As to `Cc1cnccc1NCCNC1CCN(CC(C)C)CC1` [DDD01251125], in assay [1], the IC50 came out at 1.35 µM and the inhibition at 2 µM amounted to 98.4%. Also, the “%Inh HepG2 @10uM” value in the assay with HepG2 human cells is given as 2.02%.
As for `Cc1nc(-c2cc(Cl)cc3c2OC(CN)C3)c[nH]1` (stereo not drawn) [DDD01251343], in assay [1], the IC50 is 1.97 µM and the inhibition at 2 µM is 52.6%. In the assay on HepG2 human cells, the “%Inh HepG2 @10uM” value is 11.09%.
As to `CCc1[nH]c2c(CNc3nc(C)cc(NC)n3)cc(C)cc2c1C` [DDD01251782], in assay [1], the IC50 is 1.78 µM and the inhibition at 2 µM was 97.5%. Moreover, the “%Inh HepG2 @10uM” value in the assay with HepG2 human cells is recorded as 99.91%.
In the case of `O=C(NCc1cnn2cccnc12)c1cccc(CC2CCNCC2)c1` [DDD01252275], in assay [1], the IC50 was determined as 2.46 µM and the inhibition at 2 µM amounted to 33%. Moreover, the “%Inh HepG2 @10uM” value in the assay on HepG2 human cells is given as 5.06%.
On to `Cc1cccnc1C(Nc1nccc(C2CCCC2)n1)C1CC1` (stereo not drawn) [DDD01252324], for which, in assay [1], the IC50 was 1.71 µM and the inhibition at 2 µM worked out at 73.4%. For the same molecule, the “%Inh HepG2 @10uM” value in the assay with HepG2 human cells was 0.36%.

The record behind these values is article PMC6143625, “A high throughput screen for next-generation leads targeting malaria parasite transmission” (Nature Communications, 2018).
